Results published in US11040052B2, “Methods and pharmaceutical compositions for modulating autophagy in a subject in need thereof” (INSERM (INSTITUT NATIONAL DE LA SANTE ET DE LA RECHERCHE …, priority 2013, dated 2021).
“Also recorded” adds a separate entry of the source.

How the values were obtained:
[1] = system: cytoplasmic protein acetylation; assay: Immunofluorescence of cytoplasmic acetyl-lysine-containing proteins; format: cell-based, human; details: for cytoplasmic protein acetylation: cells kept in rich medium; for cytoplasmic protein acetylation in starved cells: nutrient-depleted (starved) cells in vitro
Experimental: Cells were fixed with 4% PFA for 15 min at room temperature, and permeabilized with 0.1% Triton X-100 for 10 min, except for staining of cytoplasmic acetyl-lysine-containing proteins, in which any permeabilization step further than PFA fixation was avoided. Non-specific binding sites were blocked with 5% bovine serum in PBS, followed by staining with primary antibodies overnight at 4° C. Development was carried out with appropriate AlexaFluor™ conjugates (Molecular Probes-Invitrogen). In the case of cytoplasmic acetyl-lysine staining, an additional step of blocking using anti-acetylated-tubulin antibody (1:200) was applied. Ten μM Hoechst 33342 (Molecular Probes-Invitrogen) was employed for nuclear counterstaining. Fluorescence and confocal fluorescence microscopy assessments were performed on an IRE2 microscope (Lcica Microsystems) equipped with a DC300F camera and with an LSM 510 microscope (Carl Zeiss, Jena, Germany), respectively.
U2OS, HeLa or H4 cells stably expressing GFP-LC3 were seeded in 96-well imaging plates (BD Falcon, Sparks, USA) 24 h before stimulation. Cells were treated with the indicated agents for 4 h. Subsequently, cells were fixed with 4% PFA and counterstained with 10 μM Hoechst 33342. Images were acquired using a BD pathway 855 automated microscope (BD Imaging Systems, San Jose, USA) equipped with a 40× objective (Olympus, Center Valley, USA) coupled to a robotized Twister II plate handler (Caliper Life Sciences, Hopkinton, USA). Images were analyzed for the presence of GFP-LC3 puncta in the cytoplasm by means of the BD Attovision software (BD Imaging Systems). Cell surfaces were segmented and divided into cytoplasmic and nuclear regions according to manufacturer standard proceedings. RB 2×2 and Marr-Hildreth algorithms were used to recognize cytoplasmic GFP-LC3 positive dots. Statistical analyses were implemented on the R software (http://www.r-project.org/). For quantitative analyses of protein acetylation, cell surfaces were segmented into cytoplasm and nuclei regions, and staining intensity of each individual cell was measured for statistical analysis.
Cells were fixed with 4% PFA for 15 min at room temperature, and permeabilized with 0.1% Triton X-100 for 10 min. For cytoplasmic Acetyl Lysine staining, we proceeded as described in 35. Non-specific binding sites were blocked with 5% bovine serum albumin in PBS, followed by incubation with primary antibodies overnight at 4° C. After 1 hour incubation, appropriate Alexa-conjugated Fluorophores (Invitrogen) were used for antigen detection. Ten μM Hoechst 33342 (Molecular Probes-Invitrogen, Eugene, USA) was employed for nuclear counterstaining Fluorescence wide-field and confocal microscopyassessments were performed on an DM IRE2 microscope (Leica Microsystems, Wetzlar, Germany) equipped with a DC300F camera and with an LSM 510 microscope (Carl Zeiss, Jena, Germany), respectively.
U2OS and H4 cells stably expressing GFP-LC3 were seeded in 96-well or 384-well imaging plates (BD Falcon, Sparks, USA). 24 h before stimulation, ells were treated with the indicated agents for 6 hours in absence of lysososomal ATPase inhibitors and for 3 hours in presence of Bafilomycin A1. Subsequently, cells were fixed with 4% PFA and counterstained with 10 μM Hoechst 33342. Images were acquired using a BD pathway 855 automated microscope (BD Imaging Systems, San Jose, USA) equipped with a 40× objective (Olympus, Center Valley, USA) coupled to a robotized Twister II plate handler (Caliper Life Sciences, Hopkinton, USA). […]

[2] = system: cytoplasts of U2OS cells stably expressing GFP-LC3; assay: Autophagic flux in cytoplasts (enucleated GFP-LC3 cells); format: cell-based, human; details: presence of BafA1, compared with nucleated control cells
Experimental: U2OS cells stably expressing GFP-LC3 were trypsinized and incubated in 3 ml of complete medium supplemented with […] cytochalasin B for 45 min at 37° C. This cell suspension was layered onto a discontinuous Ficoll density gradient (3 mL of 55%, 1 mL of 90%, and 3 mL of 100% Ficoll-Paques; GE Healthcare) in complete medium containing […] cytochalasin B. Gradients were prepared in ultracentrifuge tubes and pre-equilibrated at 37° C. in a CO2 incubator overnight. Gradients containing cell suspensions were centrifugated in a prewarmed rotor (SW41; Beck-man Coulter) at 30,000 g for 30 min at 32° C. The cytoplast-enriched fraction was collected from the interface between 55 and 90% Ficoll layers, washed in complete medium, and incubated for 4 h at 37° C. before treatments.

[3] = system: cellular ATP levels; assay: Cellular ATP levels; format: cell-based
[4] = system: EP300; assay: Acetylation of EP300 K1499 in starved cells; format: cell-based; details: nutrient-free conditions
[5] = system: intracellular amino acid levels; assay: Intracellular amino acid levels by mass spectrometry; format: cell-based; details: starved cells
Experimental: Profiling of intracellular metabolites was performed on a RRLC 1260 system (Agilent Technologies) coupled to a QTOF 6520 (Agilent) equipped with an electrospray source operating in positive ion and full scan mode from 100 to 1000 Da. The gas temperature was set at 350° C. with a gas flow of 10 L·min^1. The capillary voltage was set at 4.0 kV, and the fragmentor at 150 V. Two reference masses were used to maintain the mass accuracy during analysis: 121.050873 (C5H4N4) and 922.009798 (C18H18O6N3P3F24). Five μL of sample were injected on a 150 mm×2.1 mm 3.5 μm SB Aq column (Agilent) with a pre-column 30 mm×2.1 mm 3.5 μm Eclipse plus (Agilent). The gradient mobile phase consisted of water with 10 mmol/L of ammonium acetate and 0.01% of acetic acid (A) and acetonitrile (B). Initial composition of mobile phase was 2% of B, followed by an increase to 95% of B in 10 min. The flow rate was set to 0.3 mL·min^−1.

[6] = system: AMPK, mTORC1; assay: Immunoblot of AMPK phosphorylation and mTORC1 activity (p70s6k phosphorylation); format: cell-based, human; details: nutrient-depleted (starved) cells in vitro
Experimental: For immunoblotting, 25 μg of proteins were then separated on 4-12% Bis-Tris acrylamide (Invitrogen) or 12% Tris-Glycine SDS-PAGE precast gels (Biorad, Hercules, USA) and electrotransferred to ImmobilonTM membranes (Millipore Corporation, Billerica, USA). Membranes were then sliced in different parts according to the molecular weight of the protein of interest to allow simultaneous detection of different antigens within the same experiment. […] Development was performed with appropriate horseradish peroxidase (HRP)-labeled secondary antibodies (Southern Biotech, Birmingham, USA) plus the SuperSignal West Pico chemoluminescent substrate (Thermo Scientific-Pierce). An anti-glyceraldehyde-3-phosphate dehydrogenase antibody (Chemicon International, Temecula, USA) was used to control equal loading of lanes.

[7] = system: turnover of long-lived proteins; assay: Turnover of long-lived proteins; format: cell-based, human; details: for starvation-induced turnover of long-lived proteins: starved cells

Row | Compound | cytoplasmic protein acetylation [1] | autophagic flux in cytoplasts [2] | cytoplasmic protein acetylation in starved cells [1] | cellular ATP levels in starved cells [3] | starvation-induced deacetylation of the K1499 residue in EP300 [4] | also measured
1 | O=C(O)c1cccc(C(=O)O)c1C(=O)O [BTC, 1,2,3-benzenetricarboxylate] | reduced both AcCoA levels (A) and cytoplasmic protein acetylation; also recorded: protein deacetylation | stimulated autophagy in cytoplasts as efficiently as in nucleated control cells; also recorded: stimulated autophagic flux in cytoplasts as efficiently as in nucleated control cells |  |  |  | 
2 | COC(=O)CCC(=O)C(=O)OC [DMKG, dimethyl-α-ketoglutarate] |  |  | increased cellular AcCoA levels (E) and cytoplasmic protein acetylation; also recorded: maintained high AcCoA and cytoplasmic acetylation levels | induced a decrease in cellular ATP | could be avoided | intracellular amino acid levels [5]: failed to enhance intracellular amino acid levels
3 | O=C(O)CC(O)(C(=O)O)C(O)C(=O)O (stereo not shown) [HC, hydroxycitrate] | reduced both AcCoA levels (E, I) and cytoplasmic protein acetylation; also recorded: induced cytosolic protein deacetylation; also recorded: induced cytoplasmic protein deacetylation | stimulated autophagy in cytoplasts as efficiently as in nucleated control cells; also recorded: stimulated autophagic flux in cytoplasts as efficiently as in nucleated control cells |  |  |  | cytoplasmic protein acetylation ([1]; listed as Hydroxycitrate): reduces cytoplasmic; also recorded: reduced cytoplasmic protein acetylation
4 | CC(C)CC(=O)C(=O)O [KIC, ketoisocaproic acid] |  |  | increase in AcCoA levels (A) and cytoplasmic protein acetylation; also recorded: sufficient to avoid AcCoA depletion and protein deacetylation | induced a decrease in cellular ATP | could be avoided | AMPK phosphorylation and mTORC1 activity in starved cells [6]: inhibition of AMPK phosphorylation and reversion of mTORC1 dephosphorylation; also recorded: prevented starvation-associated mTORC1 inhibition and AMPK activation; starvation-induced turnover of long-lived proteins [7]: inhibited the starvation-induced increase in autophagic flux and turnover of long-lived proteins; intracellular amino acid levels [5]: barely increased intracellular leucine levels
5 | O=C(O)CCCCC1CCSS1 (stereo not shown) [LA, lipoic acid] |  |  | increased both cellular AcCoA levels (K) and cytoplasmic protein acetylation; also recorded: maintain high AcCoA and cytoplasmic acetylation levels | induced a decrease in cellular ATP | could be avoided | AMPK phosphorylation and mTORC1 activity in starved cells [6]: blunted starvation-induced mTORC1 inhibition, AMPK activation; starvation-induced turnover of long-lived proteins [7]: blunted
6 | N#CC(=Cc1cn(-c2ccccc2)c2ccccc12)C(=O)O [UK5099, 2-Cyano-3-(1-phenyl-1H-indol-3-yl)-2-propenoic acid] | reduced both AcCoA levels (A, E) and cytoplasmic protein acetylation; also recorded: deacetylation of cytoplasmic proteins | stimulated autophagy in cytoplasts as efficiently as in nucleated control cells; also recorded: stimulated autophagic flux in cytoplasts as efficiently as in nucleated control cells |  |  |  | cellular ATP levels ([3]; cells in rich medium): without reducing ATP; autophagy-dependent turnover of long-lived proteins ([7]; cells in rich medium): increased the autophagy-dependent turnover of long-lived proteins
7 | CC(C)C[C@H](N)C(=O)O [leucine] |  |  | sufficient to maintain high AcCoA levels and cytoplasmic protein acetylation |  |  | 
